Consider two molecules from patent US9096543B2, “Nuclear transport modulators and uses thereof” (Karyopharm Therapeutics Inc., priority 2012, dated 2015).

One data set concerns CCI brain injury. Put plainly: Brain injury assessment after CCI (visual inspection, NeuN cell density, immunofluorescence). It is filed as in vivo, rats. Conditions: for cell-to-gray matter (CG) area coefficient, compared to sham: NeuN labeling. The procedure: Quantitative measures of cell density were collected from anti-NeuN immunolabeled subsections from approximately 2-3 mm anterior to bregma. Regions of interest (ROIs) were drawn (blind to experimental condition) around Layers IV-VI in the cortical region adjacent to the injury site in CCI-treated animals or in the equivalent zone (dorsal cortex) in sham animals. An ROI of similar area was also evaluated in a ventral cortical region of the same section. Cell identification was performed using the cell counting module of Keyence BZ-II Analyzer software. […] The CCI-induced reduction in CG coefficient was mitigated by treatment with Compound 1 in the ventral cortex (−3% compared to sham; p=0.09). Although the effect of Compound 1 versus vehicle treatment in the ventral cortex is not statistically significant, it is anticipated that this effect would breach statistical significance in a larger study. No effect of Compound 1 was detected in the dorsal cortical region (−32% compared to sham) immediately adjacent to the injury site. The difference in the observed effect of Compound 1 on the ventral region versus the dorsal region may be a threshold effect related to the degree of injury, which was inversely related to the distance from the injury site. Thus, the damage to the dorsal cortical region could be too severe to be rescued by Compound 1 under these conditions.
Immunofluorescence was performed to evaluate the impact of TBI on several pathways of immune response, and to determine if Compound 1 might be mediating its neuroprotective effects via one or more of those pathways. Semi-quantitative measures of secondary injury responses were examined using immunofluorescent labeling for anti-Rat IgG (an indicator of blood-brain barrier (BBB) permeability), and TNFα (an indicator of neural inflammation). All markers were imaged at 20× magnification in the areas of the cortex surrounding the injury site in adjacent subsections within 300 μm to those used for the NeuN labeling assessments. For each label, a target ROI was outlined within Layers IV-VI adjacent to the injury site (or an equivalent region of dorsal cortex for sham animals), and a reference ROI was collected from the same laminae in ventral cortex. Normalized fluorescence intensity was assessed in each of the two ROIs. For all labels, the ventral cortex reference site was determined not to be different between groups (p>0.5); therefore, the percent target to reference value (IF) was determined.

The next data set concerns PMA-induced psoriasis. The data set can be described thus: PMA-induced psoriasis in female BALB/c mice. It is filed as in vivo. The settings on record: topical. The procedure: Twenty-four (24) female BALB/c mice, aged 6 to 8 weeks with a body weight between 22 and 30 g were used. The mice were randomized into […]. The grouping of animals was as follows: Group I (Naïve; ethanol), Group II (PMA; ethanol), Group III (PMA; Compound 210 μM) and Group IV (PMA; betamethasone). Twenty (20)μL of PMA (4 μg/20 μL of acetone) was applied topically on the upper surface of pinna of ear of all animals in Group II to Group IV. PMA was applied daily on left ear and on alternate days (M-W-F) on right ear from Day 1 to Day 9. Thirty (30) minutes after application of PMA, vehicle or standard compound (betamethasone) or Compound 2 was applied topically to the ears of animals from different groups. […] Animals were observed daily for a period of 12 days for any treatment related symptoms. Basal ear thickness was recorded in all animals (before application of PMA) using digital screw gauge at time T0 (Day 1). […] Commercially available 100% DMSO (LR Grade) and ethanol (LR Grade) were used to prepare the formulations. PMA was prepared by dissolving 10 mg of PMA in 50.0 mL of acetone. Compound 2 was prepared by dissolving 1.47 mg of Compound 2 in 300 μL of 100% DMSO.

For another data set, the system named is IMQ-induced psoriasis. The data set can be described thus: Imiquimod (IMQ)-induced dermal inflammation/psoriasis model (Study 1). It is filed as in vivo, BALB/c mice. Conditions: Compound 2 1 μM. From the text:
Forty (40) male BALB/c mice aged 6 to 8 weeks were used with a pretreatment body weight of 22 to 30 g. The BALB/c mice were randomized into four (4) groups of 10 mice per group. A small area (about 2×2 cm^2) of skin on the dorsum of all the animals was neatly shaved. Group-I animals served as Naïve animals. Psoriasis was induced in Groups II to IV [Group II (IMQ; vehicle), Group III (IMQ; […] Animals were observed daily for a period of 13 days for any treatment-related symptoms. The daily observations included body weight, feed intake, skin thickening, scaling, folding, erythema, nasal discharge, movement, respiration, hair, distended abdomen, skin condition, fur, mucous membrane, presence or absence of secretions, eye condition, tail elevation, motor activity, posture and gait. Severity of damage to the dorsal portion of the skin was assessed by assigning erythema, scaling, folding and skin thickening scores based on external observations of skin, according to rubric in Table 9. […] Compound 2 was prepared by dissolving 1.47 mg of Compound 2 in 300 μL of 100% DMSO.

Another data set has as its target T1, CRM1 (Homo sapiens, UniProt O14980).
T1 construct: endogenous in cells; host or cells: U2OS-RevGFP cells
Put plainly: RevGFP assay: inhibition of CRM1 mediated nuclear export. It is filed as cell-based. The settings on record: U2OS-RevGFP cells, ~1 hr with compound; read-out: Rev Export [IC50]. The procedure:
The inhibition of CRM1 mediated nuclear export by compounds of the invention was determined. The inhibitory activity of compounds for the CRM1 protein was determined in the RevGFP assay.
Experimental protocol: Rev is a protein from human immunodeficiency virus type 1 (HIV-1) and contains a nuclear export signal (NES) in its C-terminal domain and a nuclear localization signal (NLS) in its N-terminal domain. Nuclear export of Rev protein is dependent on the classical NES/CRM1 pathway (Neville et al, 1997, Kau et al, 2003). Nuclear accumulation of Rev is observed in cells treated with specific inhibitors of CRM1, such as LMB (Kau et al, 2003). In this assay, U2OS-RevGFP cells are seeded onto clear-bottom, black, 384-well plates the day before the experiment. Compounds are serially diluted 1:2 starting from 40 μM in a separate 384-well plate in DMEM, and then transferred onto cells. Cells are incubated with compound for ˜1 hr before fixation with 3.7% formaldehyde and nuclei staining with Hoechst 33258. The amount of GFP in cell nuclei was measured and compound IC50s were determined (Kau et al, 2003).

“Also recorded” adds a separate entry of the source. Some results are limits rather than exact numbers.

For orientation: IC50 means the concentration needed to halve the response being measured.

T1 sequence (O14980 whole entry): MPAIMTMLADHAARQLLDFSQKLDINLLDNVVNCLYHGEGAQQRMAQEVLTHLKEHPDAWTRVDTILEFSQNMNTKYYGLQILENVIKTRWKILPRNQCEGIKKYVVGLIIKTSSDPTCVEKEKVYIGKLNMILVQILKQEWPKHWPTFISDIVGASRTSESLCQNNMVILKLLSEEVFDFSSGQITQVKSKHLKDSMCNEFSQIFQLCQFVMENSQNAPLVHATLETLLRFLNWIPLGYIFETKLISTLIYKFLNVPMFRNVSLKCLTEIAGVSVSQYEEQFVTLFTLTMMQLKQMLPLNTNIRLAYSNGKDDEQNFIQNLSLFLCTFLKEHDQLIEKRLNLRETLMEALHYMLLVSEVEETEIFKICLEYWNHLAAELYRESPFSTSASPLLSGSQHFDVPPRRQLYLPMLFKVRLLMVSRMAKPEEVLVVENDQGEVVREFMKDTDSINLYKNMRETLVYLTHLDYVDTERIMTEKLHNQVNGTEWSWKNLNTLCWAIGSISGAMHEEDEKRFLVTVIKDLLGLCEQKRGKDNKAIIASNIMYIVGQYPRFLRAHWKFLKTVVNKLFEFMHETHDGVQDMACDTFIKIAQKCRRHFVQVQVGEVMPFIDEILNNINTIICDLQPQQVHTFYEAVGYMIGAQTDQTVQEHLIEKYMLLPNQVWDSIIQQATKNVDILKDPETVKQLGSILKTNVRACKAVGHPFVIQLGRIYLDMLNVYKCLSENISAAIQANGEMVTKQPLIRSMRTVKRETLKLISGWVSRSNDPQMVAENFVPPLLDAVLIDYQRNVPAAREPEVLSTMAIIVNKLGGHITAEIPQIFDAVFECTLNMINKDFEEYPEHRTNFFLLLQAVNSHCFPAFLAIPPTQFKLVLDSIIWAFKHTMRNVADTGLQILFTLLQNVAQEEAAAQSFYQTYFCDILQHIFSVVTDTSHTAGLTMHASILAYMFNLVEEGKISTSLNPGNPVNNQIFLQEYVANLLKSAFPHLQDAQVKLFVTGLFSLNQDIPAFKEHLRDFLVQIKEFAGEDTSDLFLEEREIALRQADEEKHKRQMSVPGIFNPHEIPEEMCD

Consider `CC(C)(C)C(=O)NNC(=O)/C=C\n1cnc(-c2cc(C(F)(F)F)cc(C(F)(F)F)c2)n1` [Compound 1, (Z)-3-(3-(3,5-bis(trifluoromethyl)phenyl)-1H-1,2,4-triazol-1-yl)-N′-pivaloylacrylohydrazide], for which, in the data set on CCI brain injury (CCI + Compound 1 6 mg/kg), the “qualitative visual inspection of whole brains (damage to dorsal-medial cortical tissue)” value is “damage ranging from moderate to minimal”. Besides, the “cell-to-gray matter (CG) area coefficient, compared to sham” value in the data set on CCI brain injury (dorsal cortical region adjacent to injury site, CCI control −45%) is −32%; with CCI brain injury (ventral cortex, p=0.09 vs vehicle, CCI control −30%) it was −3%. Besides, in the data set with CCI brain injury (tissue surrounding the injury site), the “secondary injury responses (TNFα immunopositive cells, anti-Rat IgG immunofluorescence)” value is on record as “largely absent; also recorded: reduces secondary injury responses”.
On to `O=C(/C=C\n1cnc(-c2cc(C(F)(F)F)cc(C(F)(F)F)c2)n1)NNC(=O)CN1CCOCC1` [Compound 2, (Z)-3-(3-(3,5-bis(trifluoromethyl)phenyl)-1H-1,2,4-triazol-1-yl)-N′-(2-morpholinoacetyl)acrylohydrazide], for which the anti-psoriatic activity result with PMA-induced psoriasis is on record as “statistically significant anti-psoriatic activity”. In the data set with PMA-induced psoriasis (10 μM daily, prominent Days 6-8, diminished Day 10 and beyond), the “PMA-induced increases in ear thickness and disease activity index (DAI)” value was “prominent reduction in PMA-induced increases in (i) left and right ear thickness, and (ii) left and right ear DAI”. Also, the “body weight, food and water intake” value with IMQ-induced psoriasis was “without adversely affecting body weight, food and water intake”. Besides, the “IMQ-induced disease manifestation / disease activity index” value in the data set with IMQ-induced psoriasis (daily Day 1 to Day 13) was “diminished IMQ-induced disease manifestation; also recorded: reduction in disease activity index in comparison to the vehicle treated group”. Besides, on CRM1, the IC50 was below 1 µM.
